Assay results reported in patent publication US4243681A, “Alkylthiophenoxypropanolamines and pharmaceutical compositions and uses thereof” (priority 1979, dated 1981).
Where a name gives a salt, the structure may show the parent alone.

How the values were obtained:
rabbit thoracic aorta = assay: Isolated rabbit thoracic aorta, antispasmodic activity vs. potassium chloride; type: cell-based, rabbit (New Zealand White); conditions: for antispasmodic potency relative to prior art compounds A and B / antispasmodic activity (in words): potassium chloride-induced spasms; for Antispasmodic Potency: potency relative to papaverine (equals one), from pA2 vs. potassium chloride
Protocol: (§1) Test Method. Antispasmodic activity was assessed in vitro by determining the effect of the test substance on induced contraction of arterial smooth muscle as follows. Adult, male, New Zealand White rabbits (body weight 2.5-4 kg.) were used. Each rabbit was killed by i.v. air injection. The thorax was opened and the descending thoracic aorta removed and placed in Kreb's-bicarbonate solution. Extraneous tissue was removed and the aorta was cut spirally along its entire length. Four spiral segments, each approximately 2 cm. in length (unstretched), were obtained from each thoracic aorta. […] The bath medium surrounding the aortic spiral (Kreb's-bicarbonate solution) was maintained at 37.5°C. and constantly aerated with 95% O2 :5% CO2. Activity of the aortic smooth muscle was recorded on an electronic polygraph via its connection to the tension transducer. After an equilibration period of 60 min., a cumulative dose-response curve was obtained to an agonist (e.g. potassium chloride or norepinephrine) and the tissue then washed. Seventy-five min. later, a second cumulative dose-response curve to the agonist was obtained and the tissue washed again. Sixty min. later, a test drug solution was added to the tissue bath fluid and, after 15 min., drug exposure and, without washing, a third and final agonist-response curve was obtained. All additions to the bath fluid were 0.1 ml. volumes of aqueous solutions.

[1] = tested on: human platelet-rich plasma; assay: Inhibition of platelet aggregation in vitro (ADP or collagen induced; antithrombogenic activity); type: cell-based; conditions: for ED50 ADP (inhibition of platelet aggregation): aggregation induced by 1 mcg. ADP; for ED50 Coll (inhibition of platelet aggregation): minimal amount of collagen producing maximal aggregation
Protocol: Test Method. A method similar to that described in Born, Nature 194, 927 (1962) and O'Brien, J. Clinical Pathology 15, 446 (1962). This test comprises a nephelometric method in which the change in turbidity of a specimen of human platelet-rich plasma is measured on causation of platelet aggregation by addition of adenosine diphosphate (ADP) or collagen as the thrombogenic inducing agent. An increase in transmittance light occurs when the thrombogenic agent is added to the specimen of platelet-rich plasm due to clumping of platelets. Efficacy of the test compound is determined by ability to prevent the clumping and concommitant increase in transmittance. Various concentrations of the test agent are tested and that concentration causing a 50% reduction in the thrombogenic response is determined from a concentration-response curve.

adrenergic beta-receptor = target: T1, adrenergic beta-receptor (Cavia porcellus, UniProt Q8K4Z4); assay: Beta-adrenergic blocking activity in the isolated guinea pig trachea (isoproterenol); type: cell-based; conditions: for Beta-Adrenergic Blocking Potency: potency relative to propanol (equals one), isoproterenol 0.1 mcg./ml.
T1 construct: Tracheas excised from adult guinea pigs; from tissue; host or cells: guinea pig trachea (spirally cut segments)
T1 sequence (Q8K4Z4 whole entry): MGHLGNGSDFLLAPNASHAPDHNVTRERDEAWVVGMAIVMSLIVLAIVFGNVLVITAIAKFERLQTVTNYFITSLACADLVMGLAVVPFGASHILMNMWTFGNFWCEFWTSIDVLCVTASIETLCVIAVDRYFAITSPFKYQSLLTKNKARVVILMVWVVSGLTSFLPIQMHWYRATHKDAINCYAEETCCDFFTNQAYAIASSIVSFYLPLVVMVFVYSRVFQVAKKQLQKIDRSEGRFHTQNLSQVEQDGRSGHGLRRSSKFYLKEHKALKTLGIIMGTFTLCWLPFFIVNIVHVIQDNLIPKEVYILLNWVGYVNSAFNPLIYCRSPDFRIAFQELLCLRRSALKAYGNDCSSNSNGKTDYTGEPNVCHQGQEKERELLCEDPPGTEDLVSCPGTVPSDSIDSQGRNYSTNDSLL
Protocol: Test Method. […] The lower end of a tracheal segment is fixed to a stationary glass rod and the upper end is threaded to an isometric tension transducer. Changes in the spontaneous tonus of the tracheal smooth muscle are monitored via the transducer and recorded continuously on an electronic recorder. Adrenergic beta-receptor blocking activity is determined by the ability of a test agent to inhibit the response of the isolated tissue to the adrenergic beta-stimulant "isoproterenol" at a concentration of 0.1 mcg./ml. bath fluid. The tissues are exposed to the test agent solution for a 15-min. interval prior to the addition of isoproterenol to the bath fluid. Beta-receptor blocking potency of a test drug is ascertained from concentration-response relationships wherein the response is expressed as a percent inhibition of isoproterenol-induced tissue response. […] Each drug solution is added to the tissue bathing medium at a constant volume of 0.2 ml./ml. of bath fluid and only one test drug concentration is employed for an individual tissue segment. Potency of the test agent relative to that of the beta-adrenergic blocking agent "propanolol" as a reference standard is assessed by comparing the IC50 values.

perfused dog hind limb = assay: Peripheral vasodilator activity, perfused dog hind limb (anesthetized dog); type: in vivo; conditions: for pressure reduction (findings, range over compounds): infusion dose 1.0 mg./min.
Protocol: Test Method. Mongrol dogs of either sex weighing between 11 and 16 kg., each, were anesthetized with pentobarbital (30 mg./kg.) administered intravenously. The left brachial vein was cannulated and pentobarbital infused continuously throughout the experiment at a rate of 5 mg./kg./hr. A tracheotomy was performed and dogs ventilated mechanically with room air at a rate of 18 strokes/min. and a volume equivalent to 20 ml./kg. The vagi were sectioned bilaterally in the mid-cervical region of the neck. The right brachial vein and artery were cannulated to inject drugs and to monitor blood pressure via a Statham pressure transducer, respectively. All measurements were recorded on a Beckman-Offner dynograph. The abdominal aorta was exposed through midline incision and a loose ligature placed around the aorta distal to the left renal artery. The right (donor) and left (recipient) femoral arteries were exposed for cannulation and subsequent hind-limb perfursion. Following intravenous administration of heparin (5 mg/kg.) and gallamine triethiodide (2 mg./kg.), the right femoral artery was cannulated and the tip of the catheter advanced into the abdominal aorta to the level of the renal arteries. The left femoral artery was cannulated and the hind-limb perfused using a Harvard Perfusion pump. The ligature previously placed around the aorta was subsequently tied to minimize collateral circulation. […] Perfusion pressure, measured at a point distal to the perfusion pump was set equal to 150 mm Hg. by adjusting pump speed. Blood flow to the limb was determined volumetrically at the conclusion of the experiment. The test agent was administered by infusion at a rate of from 0.1-1.0 mg./min. for a six-minute period and maximum reduction in pressure determined. One to three animals were employed per test agent. […] This protocol precludes effects resulting from animal variation thus permitting a direct side-by-side comparison of vasodilating activity.

alpha-adrenergic = assay: Isolated rabbit thoracic aorta, antispasmodic (anti-alpha-adrenergic) activity vs. norepinephrine; type: cell-based, rabbit (New Zealand White); conditions: norepinephrine as agonist
Protocol: as §1, with “solutions. […] Selective activity against norepinephrine-induced spasms is indicative of alpha-adrenergic blocking (i.e. antispasmodic) activity. […] Phentolamine is an alpha-adrenergic blocking agent and a standard reference in the art. […] This experiment illustrates that the instant compounds are non-anti-alpha-adrenergic antispasmodic agents in that they have a substantial direct smooth muscle relaxant effect (as shown in Example 34) relatively uncomplicated by any significant selective alpha-adrenergic blocking effect.” for “solutions.”

[2] = infusion rate 0.3 mg./min., side-by-side comparison in same animals
[3] = infusion rate 1.0 mg./min., side-by-side comparison in same animals

CC(C)Sc1ccc(OCC(O)CNCCCCC2CCCCC2)cc1 (stereo not shown) [Example 6, 1-[(4-cyclohexylbutyl)amino]-3-[4-[(1-methylethyl)thio]phenoxy]-2-propanolhydrochloride]
antispasmodic potency relative to prior art compounds A and B (rabbit thoracic aorta): about 1/2 | Antispasmodic Potency (rabbit thoracic aorta): 0.02 | ED50 ADP (inhibition of platelet aggregation) [1]: 53 Microgram/0.5 ml. plateletrich human plasma | ED50 Coll (inhibition of platelet aggregation) [1]: 29 Microgram/0.5 ml. plateletrich human plasma | Beta-Adrenergic Blocking Potency (adrenergic beta-receptor): < 0.002 | Pressure Decrease (perfused dog hind limb; infusion rate 0.3 mg./min.): -47 Millimeters of mercury | Pressure Decrease (perfused dog hind limb; infusion rate 1.0 mg./min.): -74 Millimeters of mercury

CCCCCCCCNCC(O)COc1ccc(SC)cc1 (stereo not shown) [Example 1, 1-[4-(Methylthio)phenoxy]-3-(octylamino)-2-propanol]
ED50 ADP (inhibition of platelet aggregation) [1]: 69 Microgram/0.5 ml. plateletrich human plasma | ED50 Coll (inhibition of platelet aggregation) [1]: 42 Microgram/0.5 ml. plateletrich human plasma | Beta-Adrenergic Blocking Potency (adrenergic beta-receptor): < 0.001 | Pressure Decrease (perfused dog hind limb; infusion rate 0.3 mg./min.): -22 Millimeters of mercury | Pressure Decrease (perfused dog hind limb; infusion rate 1.0 mg./min.): -59 Millimeters of mercury

CCCCCCCCNCC(O)COc1cccc(SC(C)C)c1.Cl (stereo not shown) [Example 3, 1-[3-[(1-Methylethyl)thio]phenoxy]-3-(octylamino)-2-propanol Hydrochloride]
Antispasmodic Potency (rabbit thoracic aorta): 0.7 | ED50 ADP (inhibition of platelet aggregation) [1]: 53 Microgram/0.5 ml. plateletrich human plasma | ED50 Coll (inhibition of platelet aggregation) [1]: 24 Microgram/0.5 ml. plateletrich human plasma | Beta-Adrenergic Blocking Potency (adrenergic beta-receptor): < 0.001 | Pressure Decrease (perfused dog hind limb; infusion rate 0.3 mg./min.): -20 Millimeters of mercury | Pressure Decrease (perfused dog hind limb; infusion rate 1.0 mg./min.): -87 Millimeters of mercury

COc1ccc(Cc2nccc3cc(OC)c(OC)cc23)cc1OC [Papaverine, reference compound]
Pressure Decrease (perfused dog hind limb; infusion rate 0.3 mg./min.): -31 Millimeters of mercury

CSc1ccccc1OCC(O)CNC(C)C (stereo not shown) [Test agent A, 1-(isopropylamino)-3-[2-(methylthio)phenoxy]-2-propanol, reference compound]
antispasmodic activity (in words) (rabbit thoracic aorta): relatively weak activity | Antispasmodic Potency (rabbit thoracic aorta): 0.04 | ED50 ADP (inhibition of platelet aggregation) [1]: 137 Microgram/0.5 ml. plateletrich human plasma | ED50 Coll (inhibition of platelet aggregation) [1]: 33 Microgram/0.5 ml. plateletrich human plasma | anti-alpha-adrenergic activity relative to phentolamine (alpha-adrenergic): 1-2% | beta-adrenergic blocking activity (in words) (adrenergic beta-receptor): substantial activity | Beta-Adrenergic Blocking Potency (adrenergic beta-receptor): 1.0 | pressure reduction (findings, range over compounds) (perfused dog hind limb): 27-29 mm Hg | Pressure Decrease (perfused dog hind limb; [2]): -20 Millimeters of mercury | Pressure Decrease (perfused dog hind limb; [3]): -27 Millimeters of mercury

CC(C)Sc1ccc(OCC(O)CNCCC2CCCCC2)cc1 (stereo not shown) [Example 5, 1-[(2-cyclohexylethyl)amino]-3-[4-[(1-methylethyl)thio]phenoxy]-2-propanolhydrochloride]
Antispasmodic Potency (rabbit thoracic aorta): 2.4 | ED50 ADP (inhibition of platelet aggregation) [1]: 56 Microgram/0.5 ml. plateletrich human plasma | ED50 Coll (inhibition of platelet aggregation) [1]: 47 Microgram/0.5 ml. plateletrich human plasma | Beta-Adrenergic Blocking Potency (adrenergic beta-receptor): < 0.0006 | Pressure Decrease (perfused dog hind limb; infusion rate 0.3 mg./min.): -63 Millimeters of mercury | Pressure Decrease (perfused dog hind limb; infusion rate 1.0 mg./min.): -87 Millimeters of mercury

CSc1ccc(OCC(O)CNC(C)C)cc1 (stereo not shown) [Test agent B, 1-(isopropylamino)-3-[4-(methylthio)phenoxy]-2-propanol, reference compound]
antispasmodic activity (in words) (rabbit thoracic aorta): relatively weak activity | Antispasmodic Potency (rabbit thoracic aorta): 0.04 | ED50 ADP (inhibition of platelet aggregation) [1]: 107 Microgram/0.5 ml. plateletrich human plasma | ED50 Coll (inhibition of platelet aggregation) [1]: 28 Microgram/0.5 ml. plateletrich human plasma | anti-alpha-adrenergic activity (in words) (alpha-adrenergic): essentially inactive | beta-adrenergic blocking activity (in words) (adrenergic beta-receptor): substantial activity | Beta-Adrenergic Blocking Potency (adrenergic beta-receptor): 0.2 | pressure reduction (findings, range over compounds) (perfused dog hind limb): 27-29 mm Hg | Pressure Decrease (perfused dog hind limb; [2]): -3 Millimeters of mercury | Pressure Decrease (perfused dog hind limb; [3]): -29 Millimeters of mercury

CCCCCCCCCCCCNCC(O)COc1ccc(SC(C)C)cc1.Cl (stereo not shown) [Example 4, 1-[4-[(1-Methylethyl)thio]phenoxy]-3-(dodecylamino)-2-Propanol Hydrochloride]
antispasmodic potency relative to prior art compounds A and B (rabbit thoracic aorta): twice as potent | Antispasmodic Potency (rabbit thoracic aorta): 0.08 | Beta-Adrenergic Blocking Potency (adrenergic beta-receptor): < 0.001

CCCCCCCCNCC(O)COc1ccc(SC)cc1C (stereo not shown) [Example 7, 1-[2-methyl-4-(methylthio)phenoxy]-3-(octylamino)-2-propanol]
Antispasmodic Potency (rabbit thoracic aorta): 0.8 | ED50 ADP (inhibition of platelet aggregation) [1]: 82 Microgram/0.5 ml. plateletrich human plasma | ED50 Coll (inhibition of platelet aggregation) [1]: 39 Microgram/0.5 ml. plateletrich human plasma | Beta-Adrenergic Blocking Potency (adrenergic beta-receptor): < 0.0006 | Pressure Decrease (perfused dog hind limb; infusion rate 0.3 mg./min.): -56 Millimeters of mercury | Pressure Decrease (perfused dog hind limb; infusion rate 1.0 mg./min.): -80 Millimeters of mercury

CCCCCCCCNCC(O)COc1ccccc1SC.Cl (stereo not shown) [Example 8, 1-[2-(Methylthio)phenoxy]-3-(octylamino)-2-propanol Hydrochloride]
Antispasmodic Potency (rabbit thoracic aorta): 2.6 | ED50 ADP (inhibition of platelet aggregation) [1]: 65 Microgram/0.5 ml. plateletrich human plasma | ED50 Coll (inhibition of platelet aggregation) [1]: 32 Microgram/0.5 ml. plateletrich human plasma | anti-alpha-adrenergic activity relative to phentolamine (alpha-adrenergic): 1-2% | Beta-Adrenergic Blocking Potency (adrenergic beta-receptor): 0.004 | Pressure Decrease (perfused dog hind limb; infusion rate 0.3 mg./min.): -15 Millimeters of mercury | Pressure Decrease (perfused dog hind limb; infusion rate 1.0 mg./min.): -64 Millimeters of mercury
